EC50 data for 22 molecules are collected here from patent US20200055817A1 (AbbVie Deutschland GmbH & Co. KG, priority 2016, published 2020).

pEC50: −log10 of the molar value.

Holding throughout (assay type): cell-based
Assay [1] has as its target T1, human EDG1 (S1PR1) receptor (Homo sapiens, UniProt P21453).
T1 construct: expressed in transfected cells; host or cells: CHO-A21-Edg1#17 (CHO clone co-expressing mitochondrial aequorin and chimaeric Gaqi5)
The experiment in a line: Aequorin assay, agonist potency, CHO-A21-Edg1#17 cells. The following applies: agonist mode, aequorin luminescence; read-out: S1P1 EC50. The method in brief: (§1)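 CHO cells coexpressing receptor, mitochondrial aequorin and Gαqi5 (S1P3 pool: GNA16) were loaded overnight at RT with 5 μM coelenterazine h in 0.1% fatty-acid-free BSA buffer. Cells were injected onto compound, luminescence recorded 90 s and integrated, normalised to digitonin or 20 μM ATP; sigmoidal fit.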

For the next assay, the target named is T2, S1P4 (Homo sapiens, UniProt O95977).
T2 sequence (O95977 1-384): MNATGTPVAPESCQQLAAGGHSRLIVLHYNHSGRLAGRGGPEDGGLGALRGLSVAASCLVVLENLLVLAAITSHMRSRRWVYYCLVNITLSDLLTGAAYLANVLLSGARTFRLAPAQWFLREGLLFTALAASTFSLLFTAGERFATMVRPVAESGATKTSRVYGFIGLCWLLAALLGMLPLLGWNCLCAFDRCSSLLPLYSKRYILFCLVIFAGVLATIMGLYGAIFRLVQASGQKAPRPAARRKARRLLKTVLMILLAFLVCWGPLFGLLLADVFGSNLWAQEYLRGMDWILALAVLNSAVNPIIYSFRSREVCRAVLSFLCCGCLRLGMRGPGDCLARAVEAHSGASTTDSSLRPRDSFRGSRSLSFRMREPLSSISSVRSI
Briefly: Aequorin assay, agonist potency, S1P4. The following applies: agonist mode, aequorin luminescence. Put shortly:
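Aequorin luminescence read over 90 s after adding coelenterazine h–loaded cells (5 μM, overnight, RT) to test compound in phenol red-free DMEM/F12 buffer containing 0.1% fatty acid-free BSA. Responses integrated, scaled to the 100% signal from 100 μM digitonin or 20 μM ATP, and fitted to a sigmoidal dose-response model.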

Assay [2] addresses T3, human EDG8 (S1PR5) receptor (Homo sapiens, UniProt Q9H228).
T3 construct: carries the transgenes human EDG8 (S1PR5) receptor (Acession number NP_110387.1); expressed in transfected cells; host or cells: CHO-A21-EDG8#12 (CHO clone co-expressing mitochondrial aequorin and chimaeric Gaqi5)
The experiment in a line: Aequorin assay, agonist potency, CHO-A21-EDG8#12 cells. The following applies: agonist mode, aequorin luminescence; read-out: S1P5 EC50 range #. Put shortly: as §1

T1 sequence (P21453 whole entry): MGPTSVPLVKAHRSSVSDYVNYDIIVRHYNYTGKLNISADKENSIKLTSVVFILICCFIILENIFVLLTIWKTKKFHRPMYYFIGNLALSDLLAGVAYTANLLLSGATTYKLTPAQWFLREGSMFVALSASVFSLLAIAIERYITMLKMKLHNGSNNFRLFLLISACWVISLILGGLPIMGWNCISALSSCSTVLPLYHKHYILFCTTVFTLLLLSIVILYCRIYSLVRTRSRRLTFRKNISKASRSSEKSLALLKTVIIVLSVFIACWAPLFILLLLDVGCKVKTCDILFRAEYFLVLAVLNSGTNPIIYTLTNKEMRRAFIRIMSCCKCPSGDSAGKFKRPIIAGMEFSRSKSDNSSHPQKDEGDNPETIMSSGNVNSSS
T3 sequence (Q9H228 whole entry): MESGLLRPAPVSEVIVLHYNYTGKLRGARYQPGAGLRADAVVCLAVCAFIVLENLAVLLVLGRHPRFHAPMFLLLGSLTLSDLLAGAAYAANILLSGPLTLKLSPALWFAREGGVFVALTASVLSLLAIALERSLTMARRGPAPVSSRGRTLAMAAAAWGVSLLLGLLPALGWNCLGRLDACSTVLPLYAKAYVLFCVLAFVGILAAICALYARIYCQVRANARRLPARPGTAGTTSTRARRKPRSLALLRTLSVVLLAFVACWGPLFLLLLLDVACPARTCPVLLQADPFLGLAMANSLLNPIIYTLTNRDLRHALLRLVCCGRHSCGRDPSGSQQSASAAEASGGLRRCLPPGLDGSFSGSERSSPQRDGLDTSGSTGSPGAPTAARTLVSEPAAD

Turning to `O=C(O)C1(CN2CC3(Cc4ccc(OCC5CCCCC5)cc4C3)C2)CC1` [Example 126, 1-((5′-(cyclohexylmethoxy)-1′,3′-dihydrospiro[azetidine-3,2′-inden]-1-yl)methyl)cyclopropanecarboxylic acid], the pEC50 (as a rule, −log10 of the EC50, conventionally taken in molar units) in assay [1] is less than 6.00; at S1P4 it was greater than 6.00; in assay [2], 6.00 to 7.00.
The corresponding values for `CC(Oc1ccc(C#Cc2ccc3c(c2)CC2(C3)CN(CC3(C(=O)O)CC3)C2)cn1)C(F)(F)F` (stereo not drawn) [Example 117, 1-((5′-((6-((1,1,1-trifluoropropan-2-yl)oxy)pyridin-3-yl)ethynyl)-1′,3′-dihydrospiro[azetidine-3,2′-inden]-1-yl)methyl)cyclopropanecarboxylic acid] are greater than 6.00, less than 6.00 and no less than 8.00.
With `CCOc1ccc(C#Cc2ccc3c(c2)CC2(C3)CN(C3CC(C(=O)O)C3)C2)cc1` (stereo not drawn) [Example 98, 3-(5′-((4-ethoxyphenyl)ethynyl)-1′,3′-dihydrospiro[azetidine-3,2′-inden]-1-yl)cyclobutanecarboxylic acid], the pEC50 in assay [1] is greater than 6.00; at S1P4, less than 6.00; in assay [2] it was 7.00 to 8.00.
For `O=C(O)CN1CC2(Cc3ccc(OCc4c(F)cccc4C(F)(F)F)cc3C2)C1` [Example 19, 2-(5′-((2-fluoro-6-(trifluoromethyl)benzyl)oxy)-1′,3′-dihydrospiro[azetidine-3,2′-inden]-1-yl)acetic acid], in that order: less than 6.00, greater than 6.00 and no less than 8.00.
For `CCOc1ccc(C#Cc2ccc3c(c2)CC2(C3)CN(CC3(C(=O)O)CC3)C2)cc1` [Example 112, 1-((5′-((4-ethoxyphenyl)ethynyl)-1′,3′-dihydrospiro[azetidine-3,2′-inden]-1-yl)methyl)cyclopropanecarboxylic acid], in that order: less than 6.00, less than 6.00 and 6.00 to 7.00.
For `O=C(O)C1(CN2CC3(Cc4ccc(OCc5ccc(OCC6CC6)cc5)cc4C3)C2)CC1` [Example 128, 1-((5′-((4-(cyclopropylmethoxy)benzyl)oxy)-1′,3′-dihydrospiro[azetidine-3,2′-inden]-1-yl)methyl)cyclopropanecarboxylic acid], in that order: less than 6.00, less than 6.00 and 5.00 to 6.00.
In the case of `O=C(O)CN1CC2(Cc3ccc(OCc4c(Cl)cccc4C(F)(F)F)cc3C2)C1` [Example 20, 2,2,2-trifluoroacetic acid compound with 2-(5′-((2-chloro-6-(trifluoromethyl)benzyl)oxy)-1′,3′-dihydrospiro[azetidine-3,2′-inden]-1-yl)acetic acid (1:1)], the values for the pEC50 (in assay [1]; at S1P4; in assay [2]) were less than 6.00, greater than 6.00 and no less than 8.00, respectively.
For `O=C(O)CN1CC2(Cc3ccc(OC4CCc5cc(Cl)cc(Cl)c54)cc3C2)C1` (stereo not drawn) [Example 69, 2-(5′-((5,7-dichloro-2,3-dihydro-1H-inden-1-yl)oxy)-1′,3′-dihydrospiro[azetidine-3,2′-inden]-1-yl)acetic acid], in that order: less than 6.00, greater than 6.00 and no less than 8.00.
For `O=C(O)CN1CC2(Cc3ccc(C#Cc4cccc(Cl)c4)cc3O2)C1` [Example 152, 2-(6′-((3-chlorophenyl)ethynyl)-3′H-spiro[azetidine-3,2′-benzofuran]-1-yl)acetic acid], in that order: less than 6.00, greater than 6.00 and no less than 8.00.
The corresponding values for `O=C(O)CN1CC2(Cc3ccc(OCc4c(F)cccc4F)cc3C2)C1` [Example 13, 2,2,2-trifluoroacetic acid compound with 2-(5′-((2,6-difluorobenzyl)oxy)-1′,3′-dihydrospiro[azetidine-3,2′-inden]-1-yl)acetic acid (1:1)] are less than 6.00, greater than 6.00 and 7.00 to 8.00.
On to `O=C(O)C1(CN2CC3(Cc4ccc(OCCOc5ccccc5Cl)cc4C3)C2)CC1` [Example 145, 1-((5′-(2-(2-chlorophenoxy)ethoxy)-1′,3′-dihydrospiro[azetidine-3,2′-inden]-1-yl)methyl)cyclopropanecarboxylic acid], for which the results for the pEC50 (in assay [1]; at S1P4; in assay [2]) were less than 6.00, greater than 6.00 and 5.00 to 6.00, respectively.
The corresponding values for `CCOc1ccc(COc2ccc3c(c2)CC2(C3)CN(C3CC(C(=O)O)C3)C2)c(F)c1F` (stereo not drawn) [Example 86, 3-(5′-((4-ethoxy-2,3-difluorobenzyl)oxy)-1′,3′-dihydrospiro[azetidine-3,2′-inden]-1-yl)cyclobutanecarboxylic acid] are less than 6.00, greater than 6.00 and 5.00 to 6.00.
`O=C(O)C1(CN2CC3(Cc4ccc(OCCc5cccc(Cl)c5)cc4C3)C2)CC1` [Example 57, 1-((5′-(3-chlorophenethoxy)-1′,3′-dihydrospiro[azetidine-3,2′-inden]-1-yl)methyl)cyclopropanecarboxylic acid]: the pEC50 was greater than 6.00 in assay [1], greater than 6.00 on S1P4 and 6.00 to 7.00 in assay [2].
`CCc1cccc(F)c1COc1ccc2c(c1)CC1(C2)CN(CC(=O)O)C1` [Example 21, 2-(5′-((2-ethyl-6-fluorobenzyl)oxy)-1′,3′-dihydrospiro[azetidine-3,2′-inden]-1-yl)acetic acid]: the figures for the pEC50 (in assay [1]; at S1P4; in assay [2]) were less than 6.00, greater than 6.00 and no less than 8.00, respectively.
For the molecule `O=C(O)C1CC(N2CC3(Cc4ccc(OC5CCc6cccc(Cl)c65)cc4C3)C2)C1` (stereo not drawn) [Example 106, 3-(5′-((7-chloro-2,3-dihydro-1H-inden-1-yl)oxy)-1′,3′-dihydrospiro[azetidine-3,2′-inden]-1-yl)cyclobutanecarboxylic acid], the results for the pEC50 (in assay [1]; at S1P4; in assay [2]) were greater than 6.00, greater than 6.00 and no less than 8.00, respectively.
Regarding `CCc1cccc(Cl)c1COc1ccc2c(c1)OC1(C2)CN(CC2(C(=O)O)CC2)C1` [Example 156, 1-((6′-((2-chloro-6-ethylbenzyl)oxy)-3′H-spiro[azetidine-3,2′-benzofuran]-1-yl)methyl)cyclopropanecarboxylic acid], the pEC50 is less than 6.00 in assay [1], greater than 6.00 at S1P4 and no less than 8.00 in assay [2].
For `COc1ccc(COc2ccc3c(c2)CC2(C3)CN(CC3(C(=O)O)CC3)C2)c(C)n1` [Example 121, 1-((5′-((6-methoxy-2-methylpyridin-3-yl)methoxy)-1′,3′-dihydrospiro[azetidine-3,2′-inden]-1-yl)methyl)cyclopropanecarboxylic acid], in that order: less than 6.00, less than 6.00 and 5.00 to 6.00.
The corresponding values for `O=C(O)CN1CC2(Cc3ccc(C#CC4CCCCC4)cc3O2)C1` [Example 150, 2-(6′-(cyclohexylethynyl)-3′H-spiro[azetidine-3,2′-benzofuran]-1-yl)acetic acid] are less than 6.00, greater than 6.00 and no less than 8.00.
The corresponding values for `O=C(O)CN1CC2(Cc3ccc(C#Cc4ccccc4)cc3O2)C1` [Example 151, 2-(6′-(phenylethynyl)-3′H-spiro[azetidine-3,2′-benzofuran]-1-yl)acetic acid] are less than 6.00, greater than 6.00 and no less than 8.00.
Turning to `O=C(O)CN1CC2(Cc3ccc(C#Cc4ccccc4)cc3C2)C1` [Example 82, 2-(5′-(phenylethynyl)-1′,3′-dihydrospiro[azetidine-3,2′-inden]-1-yl)acetic acid], the pEC50 was less than 6.00 in assay [1], greater than 6.00 at S1P4 and 7.00 to 8.00 in assay [2].
For `CC(C)Oc1ccc(C#Cc2ccc3c(c2)CC2(C3)CN(C3CC(C(=O)O)C3)C2)cn1` (stereo not drawn) [Example 96, 3-(5′-((6-isopropoxypyridin-3-yl)ethynyl)-1′,3′-dihydrospiro[azetidine-3,2′-inden]-1-yl)cyclobutanecarboxylic acid], in that order: greater than 6.00, less than 6.00 and 7.00 to 8.00.
The corresponding values for `CCOc1ccc(COc2ccc3c(c2)CC2(C3)CN(CC3(C(=O)O)CC3)C2)c(F)c1F` [Example 123, 1-((5′-((4-ethoxy-2,3-difluorobenzyl)oxy)-1′,3′-dihydrospiro[azetidine-3,2′-inden]-1-yl)methyl)cyclopropanecarboxylic acid] are less than 6.00, greater than 6.00 and 5.00 to 6.00.
